Data as given in the NIST ThermoML archive (doi:10.1007/s10765-016-2150-1).

Details: Liquid, Oscillating viscometer

O=[N+]([O-])[O-].[Li+] [lithium nitrate]
Details	viscosity [mPa·s]
544.9 K	5.15
554.5 K	4.457
571.7 K	4.195
592.1 K	3.854
595.9 K	3.618
597 K	3.72
601.3 K	3.549
603.3 K	3.373
619.2 K	3.075
623.2 K	3.024
627.2 K	3.04
662.7 K	2.448
688.8 K	2.169
689.2 K	2.094
